The record followed here is patent US8829006B2, “Compounds” (Boehringer Ingelheim International GmbH, priority 2007, dated 2014).

The target in this assay is T1, human CGRP receptor (Homo sapiens, UniProt O60894+Q16602).
T1 construct: SK-N-MC membranes (˜20 μg protein) are incubated for 180 minutes at ambient temperature; endogenous in cells; host or cells: SK-N-MC cells (membranes)
T1 sequence (Q16602 23-461): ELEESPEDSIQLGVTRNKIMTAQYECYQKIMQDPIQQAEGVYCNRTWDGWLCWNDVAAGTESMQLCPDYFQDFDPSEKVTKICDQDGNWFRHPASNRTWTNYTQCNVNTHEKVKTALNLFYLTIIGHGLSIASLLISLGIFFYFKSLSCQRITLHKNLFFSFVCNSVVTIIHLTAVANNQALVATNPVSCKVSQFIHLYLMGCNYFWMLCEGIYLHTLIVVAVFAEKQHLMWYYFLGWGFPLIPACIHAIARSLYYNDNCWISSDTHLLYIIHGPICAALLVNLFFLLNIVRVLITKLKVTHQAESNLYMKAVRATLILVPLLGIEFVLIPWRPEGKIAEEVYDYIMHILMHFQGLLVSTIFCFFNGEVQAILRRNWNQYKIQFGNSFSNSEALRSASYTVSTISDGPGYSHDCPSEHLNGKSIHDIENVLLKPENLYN
T1 sequence (O60894 27-148): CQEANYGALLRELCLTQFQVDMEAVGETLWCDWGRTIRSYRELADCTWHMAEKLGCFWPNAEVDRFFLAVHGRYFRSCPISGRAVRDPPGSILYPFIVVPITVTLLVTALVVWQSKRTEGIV
The assay can be described thus: Binding studies with SK-N-MC cells (expressing the human CGRP receptor). Particulars: SK-N-MC membranes, 50 pM 125I-iodotyrosyl-CGRP, 180 minutes at ambient temperature. How it is done: A. Binding Studies with SK-N-MC Cells (Expressing the Human CGRP Receptor)
SK-N-MC membranes (˜20 μg protein) are incubated for 180 minutes at ambient temperature with 50 pM ^125I-iodotyrosyl-Calcitonin-Gene-Related Peptide and increasing concentrations of the test substances in a total volume of 250 μl (assay buffer: 10 mM tris, 50 mM NaCl, 5 mM MgCl2, 1 mM EDTA, pH=7.4). The incubation is ended by rapid filtration through GF/B-glass fibre filters treated with polyethyleneimine (0.1%) using a cell harvester. The protein-bound radioactivity is measured using a gamma counter. Non-specific binding is defined as the bound radioactivity after the presence of 1 μM BIBN4096BS during incubation.
The concentration binding curves are analysed using computer-aided non-linear curve fitting.
One may read the Ki as a measure of affinity in units of concentration, obtained from inhibition or displacement. Higher therefore signals a looser hold on the target. For the molecule `O=C(c1cc(N2CCC(n3nc(-c4ccccc4)[nH]c3=O)CC2)ncn1)N1CCc2ccccc21` [(15)], the inhibition constant (Ki) worked out at 0.021 µM. Molecule `CC1(C)CN(C(=O)c2cc(N3CCC(n4c(=O)[nH]c5ncccc54)CC3)ncn2)Cc2ccccc21` [(55)] showed an inhibitory constant (Ki) of 0.003 µM. In turn, `COc1ccc2c(c1)CCN(C1CCN(c3cc(C(=O)N4Cc5cn[nH]c5C(C)(C)C4)ncn3)CC1)C(=O)N2` [(8)] had a Ki of 0.004 µM. As to `O=C(c1cc(N2CCC(n3c(=O)[nH]c4ncccc43)CC2)ncn1)N1CC(CCCN2CCCC2)c2ccccc21` (stereo not drawn) [(41)], affinity was put at a Ki of 0.021 µM. In the case of `CC1(C)CCN(C(=O)c2cc(N3CCC(n4c(=O)[nH]c5ncccc54)CC3)ncn2)C1` [(50)], the affinity, expressed as Ki, was 0.69 µM. The figure for `O=C(c1cc(N2CCC(n3c(=O)[nH]c4ncccc43)CC2)ncn1)N1Cc2ccccc2C1` [(17)] is 0.117 µM; for `CC1(C)CN(C(=O)c2cc(N3CCC(n4c(=O)[nH]c5ncccc54)CC3)ncn2)c2ccc(F)cc21` [(37)] it is 0.002 µM; for `O=C(c1cc(N2CCC(n3c(=O)[nH]c4ncccc43)CC2)ncn1)N1CCC2CCCCC21` (stereo not drawn) [(11)] it is 0.034 µM. The figure for `O=C(c1cc(N2CCC(n3c(=O)[nH]c4ncccc43)CC2)ncn1)N1CCc2cc(F)ccc21` [(36)] is 0.005 µM.
